Measured values published in patent US10329260B2, “Human plasma kallikrein inhibitors” (BioCryst Pharmaceuticals, Inc., priority 2014, dated 2019).

Biological target: human plasma kallikrein (Homo sapiens (Human), UniProt P03952)
Test: Plasma Kallikrein Activity Assay
Type: biochemical
Conditions: 2 nM kallikrein, 80 μM chromogenic substrate S2302, 30° C., pH 7.8; Ki by Cheng-Prusoff equation

human plasma kallikrein, sequence (P03952 whole entry partner, looked up): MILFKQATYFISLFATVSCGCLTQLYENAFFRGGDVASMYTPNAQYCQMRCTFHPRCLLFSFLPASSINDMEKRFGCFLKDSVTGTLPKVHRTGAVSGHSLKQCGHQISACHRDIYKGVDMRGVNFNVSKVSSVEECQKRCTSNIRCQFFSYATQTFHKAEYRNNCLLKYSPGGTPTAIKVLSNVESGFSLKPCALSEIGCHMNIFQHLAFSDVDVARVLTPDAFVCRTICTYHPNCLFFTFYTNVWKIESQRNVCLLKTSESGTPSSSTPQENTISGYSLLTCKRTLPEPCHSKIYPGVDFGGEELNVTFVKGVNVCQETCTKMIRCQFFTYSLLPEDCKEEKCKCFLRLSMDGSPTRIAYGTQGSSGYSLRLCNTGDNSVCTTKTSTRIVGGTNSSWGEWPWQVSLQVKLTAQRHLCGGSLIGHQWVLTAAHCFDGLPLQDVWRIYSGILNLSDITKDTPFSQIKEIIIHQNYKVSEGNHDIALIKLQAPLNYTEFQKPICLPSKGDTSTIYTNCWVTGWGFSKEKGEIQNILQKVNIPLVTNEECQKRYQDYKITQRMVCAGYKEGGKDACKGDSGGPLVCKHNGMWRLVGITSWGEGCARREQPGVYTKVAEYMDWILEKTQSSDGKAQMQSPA
human plasma kallikrein, sequence (P03952 whole entry, looked up): as the sequence (P03952 whole entry partner, looked up) above

Compound	Ki [nM]
N#Cc1ccc(C(N)(CCC2CC2)c2ccc(F)c(NC(=O)c3cc(C#N)nn3-c3cccc(CN)c3)c2)cc1 (single isomer, unassigned; (+)) [Compound 234d, (+)-N-(5-(1-amino-1-(4-cyanophenyl)-3-cyclopropylpropyl)-2-fluorophenyl)-1-(3-(aminomethyl)phenyl)-3-cyano-1H-pyrazole-5-carboxamide]	> 100
Nc1ncnc2ccc(-n3nc(C(F)(F)F)cc3C(=O)Nc3cc(C(NCC4CC4)c4ccccc4)ccc3F)cc12 (stereo not drawn) [Compound 226a, 1-(4-aminoquinazolin-6-yl)-N-(5-((cyclopropylmethylamino)(phenyl)methyl)-2-fluorophenyl)-3-(trifluoromethyl)-1H-pyrazole-5-carboxamide]	> 100
NCc1cccc(-n2nc(C(F)(F)F)cc2C(=O)Nc2cccc(C(CC(N)=O)c3ccccc3)c2)c1 (stereo not drawn) [Compound 40b, N-(3-(3-amino-3-oxo-1-phenylpropyl)phenyl)-1-(3-(aminomethyl)phenyl)-3-(trifluoromethyl)-1H-pyrazole-5-carboxamide]	> 100
NCc1cccc(-n2nc(C(F)(F)F)cc2C(=O)Nc2cccc(C(NC3CCCCCC3)c3ccccc3)c2)c1 (stereo not drawn) [Compound 171b, 1-(3-(Aminomethyl)phenyl)-N-(3-((cycloheptylamino)(phenyl)methyl)phenyl)-3-(trifluoromethyl)-1H-pyrazole-5-carboxamide]	> 100
NCc1cccc(-n2nc(C(F)(F)F)cc2C(=O)Nc2cccc(C(NCc3cccnc3)c3ccccc3)c2)c1 (stereo not drawn) [Compound 179b, 1-(3-(Aminomethyl)phenyl)-N-(3-(phenyl((pyridin-3-ylmethyl)amino)methyl)phenyl)-3-(trifluoromethyl)-1H-pyrazole-5-carboxamide]	> 100
NCc1cccc(-n2nc(C(F)(F)F)cc2C(=O)Nc2cc(F)cc(C(O)c3ccccc3)c2)c1 (stereo not drawn) [Compound 97f, 1-(3-(aminomethyl)phenyl)-N-(3-fluoro-5-(hydroxy(phenyl)methyl)phenyl)-3-(trifluoromethyl)-1H-pyrazole-5-carboxamide]	> 100
CC(C)(C)c1ccc(C(NCC2CC2)c2cccc(NC(=O)c3cc(C(F)(F)F)nn3-c3cccc(CN)c3)c2)cc1 (stereo not drawn) [Compound 203f, 1-(3-(aminomethyl)phenyl)-N-(3-((4-(tert-butyl)phenyl)((cyclopropylmethyl)amino)methyl)phenyl)-3-(trifluoromethyl)-1H-pyrazole-5-carboxamide]	> 100
NCc1cccc(-n2nc(C(F)(F)F)cc2C(=O)Nc2cccc(Cc3ccc(O)cc3)c2)c1 [Compound 136a, 1-(3-(Aminomethyl)phenyl)-N-(3-(4-hydroxybenzyl)phenyl)-3-(trifluoromethyl)-1H-pyrazole-5-carboxamide]	> 100
NCc1cccc(-n2nc(C(F)(F)F)cc2C(=O)Nc2cccc(C(O)c3cccnc3)c2)c1 (stereo not drawn) [Compound 31f, 1-(3-(aminomethyl)phenyl)-N-(3-(hydroxy(pyridin-3-yl)methyl)phenyl)-3-(trifluoromethyl)-1H-pyrazole-5-carboxamide]	> 100
O=C(Nc1cc(C(O)(CCC2CC2)c2ccccn2)ccc1F)c1cc(C(F)(F)F)nn1-c1ccc(Cl)cn1 (stereo not drawn) [Compound 159a, 1-(5-chloropyridin-2-yl)-N-(5-(3-cyclopropyl-1-hydroxy-1-(pyridin-2-yl)propyl)-2-fluorophenyl)-3-(trifluoromethyl)-1H-pyrazole-5-carboxamide]	> 100
NCc1cccc(-n2nc(C(F)(F)F)cc2C(=O)Nc2cc3c(cc2F)CNCC3)c1 [Compound 161e, 1-(3-(aminomethyl)phenyl)-N-(7-fluoro-1,2,3,4-tetrahydroisoquinolin-6-yl)-3-(trifluoromethyl)-1H-pyrazole-5-carboxamide]	> 100
COC(c1ccccc1)c1cccc(NC(=O)c2cc(C(F)(F)F)nn2-c2cccc(CN)c2)c1 (stereo not drawn) [Compound 18f, 1-(3-(aminomethyl)phenyl)-N-(3-(methoxy(phenyl)methyl)phenyl)-3-(trifluoromethyl)-1H-pyrazole-5-carboxamide]	> 100
